The experiment has as its system Human Ito cells (LI90). As to the kind of experiment: Test for inhibition of collagen synthesis (3H proline labeling, hTGF β-1 treated cells). The format is cell-based. Conditions: cultured with test compound in MEM containing 10 PM hTGF β-1 and 2% PDS for 16 hours, 3H proline labeling 24 hours, read-out: IC50 (μM), concentration at which the collagen synthesis is inhibited by 50% (T/C = 0.5). How it is done:
The pyridine derivatives (test compounds) obtained in Examples 1-2, 9-10, 21, 25, 29, 33-37, 39, 42, 44 and 46 were subjected to the following collagen synthesis test.
Test for Inhibition of Collagen Synthesis
Plasma obtained by centrifugation of rabbit blood was centrifuged again to remove platelets, and dialysis of the resulting supernatant was carried out against a Phosphate Buffered Saline (PBS) containing 0.01% (w/v) calcium chloride and 0.01% (w/v) magnesium chloride. Then, centrifugation was carried out to remove the residue and the resulting supernatant was immobilized at 56° C. for 30 minutes. The immobilized supernatant was sterilized by using a filter (0.22 μm) to prepare Plasma Derived Serum (PDS).
Human Ito cells (LI90) were plated in DULBECCO's modified eagle medium (DMEM) containing 10% fetal bovine serum and cultured in an incubator in the presence of 5% carbon dioxide (CO2) for 24 hours at 37° C., and then washed with PBS and cultured in Eagle's minimum essential medium (MEM) containing 2% PDS for additional 3 days. The cultured cells were washed with PBS and cultured together with the test compounds in MEM containing 10 PM hTGF (transforming growth factor) β-1 (containing 2% PDS based on the total amount of MEM) for 16 hours. Then, the cultured L190 was washed with PBS and RI (radioisotope) labeling was carried out in MEM containing ^3H proline as a radioactive labeled compound and 0.25 mM ascorbic acid for 24 hours. This cultured supernatant was precipitated by using trichloroacetic acid (TCA), and then the radioactivity in an […] fraction was measured and the resulting measured value was taken as collagen synthesis activity.
By comparing the radioactivity in the cultured supernatant containing the test compound with the radioactivity in the cultured supernatant containing no test compound (control), the collagen synthesis inhibition activity (T/C) was calculated by the following equation:
T/C=(radioactivity in cultured supernatant containing test compound)/(radioactivity in cultured supernatant of control).
IC50 was determined as the concentration (μM) at which the collagen systhesis can be inhibited by 50% (concentration of the test compound wherein C50=T/C corresponds to 0.5).
For `O=C(Nc1ccc(Oc2cccc3c2CCC3=O)nc1)c1ccc(Cl)c(Cl)c1` [Example 1, 3,4-dichloro-N1-{6-[(1-oxo-2,3-dihydro-1H-inden-4-yl)oxy]-3-pyridinyl}benzamide], the IC50 worked out at 2.14 µM. The value for `O=C(Nc1ccc(Oc2cccc3c2CCC3=O)nc1)c1ccc(C(F)(F)F)cc1` [Example 2, N1-{6-[(1-oxo-2,3-dihydro-1H-inden-4-yl)oxy]-3-pyridinyl}-4-(trifluoromethyl)benzamide] was 2.9 µM.

Consider `O=C(Nc1ccc(Oc2cccc3c2CCCC3=O)nc1)c1ccc(Cl)c(Cl)c1` [Example 9, 3,4-dichloro-N1-{6-[(5-oxo-5,6,7,8-tetrahydro-1-naphthalenyl)oxy]-3-pyridinyl}benzamide], for which the IC50 worked out at 2.34 µM. The figure for `O=C(Nc1ccc(Oc2ccc3c(c2)C(=O)CCCC3)nc1)c1ccc(Cl)c(Cl)c1` [Example 10] is 2.6 µM; for `CC(=O)c1ccc(Oc2ccc(NC(=O)c3ccc(Cl)c(Cl)c3)cn2)cc1C` [Example 21, N1-[6-(4-acetyl-3-methylphenoxy)-3-pyridinyl]-3,4-dichlorobenzamide] it is 2.92 µM. As for `O=C(Nc1ccc(Oc2cccc3c2CCC3)nc1)c1ccc(Cl)c(Cl)c1` [Example 25, 3,4-dichloro-N1-(6-[(2,3-dihydro-1H-inden-4-yl)oxy]-3-pyridinyl}benzamide], the IC50 was found to be 2.7 µM.

For the compound `Cc1cccc(Oc2ccc(NC(=O)c3ccc(Cl)c(Cl)c3)cn2)c1C` [Example 29, 3,4-dichloro-N1-[6-(2,3-dimethylphenoxy)-3-pyridinyl]benzamide], the IC50 is 1.58 µM. The figure for `CC1(c2ccc(Oc3ccc(NC(=O)c4ccc(Cl)c(Cl)c4)cn3)cc2)OCCO1` [Example 33, 3,4-dichloro-N1-{6-[4-(2-methyl-1,3-dioxolane-2-yl)phenoxy]-3-pyridinyl}benzamide] is 3.88 µM; for `O=C(Nc1ccc(Oc2cccc3c2CCC3O)nc1)c1ccc(Cl)c(Cl)c1` (stereo not shown) [Example 34, 3,4-dichloro-N1-{6-[(1-hydroxy-2,3-dihydro-1H-inden-4-yl)oxy]-3-pyridinyl}benzamide] it is 2.15 µM. The figure for `O=C(Nc1ccc(Oc2cccc3c2CC=C3)nc1)c1ccc(Cl)c(Cl)c1` [Example 35, 3,4-dichloro-N1-{6-[(1H-inden-7-yl)oxy]-3-pyridinyl}benzamide] is 2.43 µM. The figure for `CC(O)c1ccc(Oc2ccc(NC(=O)c3ccc(Cl)c(Cl)c3)cn2)cc1` (stereo not shown) [Example 36, 3,4-dichloro-N1-{6-[4-(1-hydroxyethyl)phenoxy]-3-pyridinyl}benzamide] is 3.72 µM; for `O=C(Nc1ccc(Cl)c(Cl)c1)c1ccc(Oc2cccc3c2CCC3=O)nc1` [Example 37, N3-(3,4-dichlorophenyl)-6-[(1-oxo-2,3-dihydro-1H-inden-4-yl)oxy]nicotinamide] it is 2.52 µM; for `O=C(Nc1ccc(C(F)(F)F)cc1)c1ccc(Oc2cccc3c2CCC3=O)nc1` [Example 39, 6-[(1-oxo-2,3-dihydro-1H-inden-4-yl)oxy]-N3-[4-(trifluoromethyl)phenyl]nicotinamide] it is 0.55 µM. For the compound `O=C(Nc1ccc(Cl)c(Cl)c1)c1ccc(Oc2cccc3c2CCCC3=O)nc1` [Example 42, N3-(3,4-dichlorophenyl)-6-[(5-oxo-5,6,7,8-tetrahydro-1-naphthalenyl)oxy]nicotinamide], the IC50 was determined as 2.29 µM. Turning to `CC(=O)c1ccc(Oc2ccc(C(=O)Nc3ccc(C(F)(F)F)cc3)cn2)cc1` [Example 44, 6-(4-acetylphenoxy)-N3-[4-(trifluoromethyl)phenyl]nicotinamide], the IC50 is 0.92 µM. The figure for `CC(=O)OC1=CCc2c(Oc3ccc(NC(=O)c4ccc(Cl)c(Cl)c4)cn3)cccc21` [Example 46, N1-{6-[(3-acetoxy-1H-inden-7-yl)oxy]-3-pyridinyl}-3,4-dichlorobenzamide] is 1.12 µM.
